Source: patent US20250179057A1, “MEK IMMUNE ONCOLOGY INHIBITORS AND THERAPEUTIC USES THEREOF” (Immuneering Corporation, priority 2022, published 2025)

Columns and labels:
CYP2D6 = CYP2D6 (Homo sapiens, UniProt P10635); experiment: CYP450 panel inhibition in human liver microsomes, 2D6 (dextromethorphan); details: 10 μM, substrate dextromethorphan
CYP3A4 = CYP3A4 (Homo sapiens, UniProt P08684); experiment: CYP450 panel inhibition in human liver microsomes, 3A4 (midazolam / testosterone); details: 10 μM; for CYP-3A4 (Midazolam) mean percentage CYP inhibition: substrate midazolam; for CYP-3A4 (Testosterone) mean percentage CYP inhibition: substrate testosterone
[1] = Plasma stability, rat plasma (Wistar Han / wistar hannover; Table 5 head SD Rat); format: in vitro ADME; details: wistar hannover rat plasma, 2 μM, anti-coagulant K2-EDTA; for % Remaining at T120: 120 min
Procedure: Individual stock solutions of propantheline and lovastatin were prepared at 10 mM in DMSO and were further diluted to 2 mM with DMSO.
Frozen matrices (Balb/c mouse, Wistar Han rat, Beagle dog, and human plasma containing K2EDTA as anti-coagulant) were thawed and centrifuged at 3100 rpm for 10 minutes at 4° C. to remove particulates. The lipid layer was then removed, and the supernatant was transferred to a new tube without disturbing the pellet. After the matrices were incubated at 37° C. for at least 10 minutes, the pH of each matrix was adjusted to pH 7.4, using 10% phosphoric acid or 1N sodium hydroxide as necessary. Test and control article stock solutions were spiked (2 μL) into matrix (1.998 mL) and mixed to final assay concentration of […]. Duplicate 30-μL aliquots of spiked plasma were transferred to matrix tubes in 96-well plate immediately after spiking for timepoints of 0, 30, 60, 120, 240, and 360 minutes. These tubes were then incubated at 37° C. with shaking and at each timepoint, the corresponding tubes containing samples were quenched with 180 μL of cold acetonitrile containing the internal standards. The quenched samples were vortex-mixed briefly and stored refrigerated. After the final time point (360 minutes), the plates with all quenched samples were vortex-mixed for 10 minutes and then centrifuged at 3100 rpm for 10 minutes at 4° C. to sediment the precipitated protein. The supernatant (50 μL) was transferred to a clean 96-well plate and diluted with 100 μL of water. The plates were stored refrigerated until analysis.
Data Analysis: Peak area ratios for IS-normalized test article and control article counts were used to calculate the percent remaining relative to the time zero (T0) value. As appropriate, results were plotted and further analyzed to calculate half-life (T1/2) values.
Mean peak area ratios were used to calculate the % remaining relative to the T0 value:
In this study, human, cynomolgus monkey, beagle dog, wistar hannover rat, and balb/c plasma stability was determined. Table 28 describes the results of the human plasma stability at 2 μM concentration and anti-coagulant K2-EDTA from 10 to 120 min. Table 29 describes the results of the cynomolgus monkey plasma stability at 2 μM concentration and anti-coagulant K2-EDTA. Table 30 describes the results of the beagle dog plasma stability at 2 μM concentration and anti-coagulant K2-EDTA. Table 31 describes the results of the wistar hannover rat plasma stability at 2 μM concentration and anti-coagulant K2-EDTA. Table 32 describes the results of the balb/c plasma stability at 2 μM concentration and anti-coagulant K2-EDTA.

[2] = tested on: cynomolgus monkey hepatocytes; experiment: Hepatocyte stability, cynomolgus monkey; format: in vitro ADME; details: 2 μM, 0.5 million cells/ml
Procedure: (§1) In this study, human, cynomolgus monkey, beagle dog, wistar hannover rat, and balb/c mouse hepatocyle stability was determined.

[3] = tested on: wistar hannover rat hepatocytes; experiment: Hepatocyte stability, wistar hannover rat; format: in vitro ADME; details: 2 μM, 0.5 million cells/ml
Procedure: as §1

CYP2B6 = target: T1, CYP2B6 (Homo sapiens, UniProt P20813); experiment: CYP450 panel inhibition in human liver microsomes, 2B6 (bupropion); details: 10 μM, substrate bupropion
T1 sequence (P20813 1-491): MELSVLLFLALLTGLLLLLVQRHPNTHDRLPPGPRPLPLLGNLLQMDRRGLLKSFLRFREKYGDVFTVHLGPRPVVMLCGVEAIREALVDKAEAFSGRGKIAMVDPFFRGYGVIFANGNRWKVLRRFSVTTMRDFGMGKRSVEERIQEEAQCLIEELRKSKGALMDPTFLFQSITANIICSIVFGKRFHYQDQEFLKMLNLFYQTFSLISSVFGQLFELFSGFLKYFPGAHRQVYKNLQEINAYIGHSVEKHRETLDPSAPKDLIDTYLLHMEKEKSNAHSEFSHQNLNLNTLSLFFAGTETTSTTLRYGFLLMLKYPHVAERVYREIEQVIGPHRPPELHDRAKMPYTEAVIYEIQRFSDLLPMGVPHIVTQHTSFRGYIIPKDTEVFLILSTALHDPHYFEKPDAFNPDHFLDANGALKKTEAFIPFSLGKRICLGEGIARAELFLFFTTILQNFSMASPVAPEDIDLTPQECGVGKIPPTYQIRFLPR

[4] = Kinetic solubility (PBS pH 7.4; 4 hr); format: physicochemical; details: for solubility kinetic at 4 h: free base (Table 19), read-out: Kinetic Solubility
Outline: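 Compound shaken in PBS pH 7.4 for 4 h at room temperature, then centrifuged. Supernatant, diluted with DMSO, quantified by LC-UV peak area against DMSO calibration curves.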

beagle dog hepatocytes = experiment: Hepatocyte stability, beagle dog; format: in vitro ADME; details: 2 μM, 0.5 million cells/ml
Procedure: as §1

PAMPA (pH 7.4) = format: in vitro ADME; details: pH = 7.4
Procedure: Each stock solution was diluted to 50 M in pH 7.4 Prisma HT buffer (pION) and 200 μl was added to each well of the donor plate in triplicate. The polyvinylidene fluoride (PVDF, 0.45 μm) filter membrane on the acceptor plate was coated with 5 μl gastrointestinal tract lipid formulation (GIT-0, pION) and to each well of the acceptor plate, 200 μl of acceptor sink buffer (pION) was added. The acceptor filter plate was then carefully placed on top of the donor plate to form a sandwich. The sandwich was incubated at 25° C. for 4 h without stirring. UV-vis spectra of the solutions in the blank, reference, acceptor and donor plates were measured using a microplate reader (Tecan Infinite 200PRO M Nano Plus). Permeability values were calculated using the PAMPA explorer software v.

Sequence of CYP3A4 (P08684 whole entry): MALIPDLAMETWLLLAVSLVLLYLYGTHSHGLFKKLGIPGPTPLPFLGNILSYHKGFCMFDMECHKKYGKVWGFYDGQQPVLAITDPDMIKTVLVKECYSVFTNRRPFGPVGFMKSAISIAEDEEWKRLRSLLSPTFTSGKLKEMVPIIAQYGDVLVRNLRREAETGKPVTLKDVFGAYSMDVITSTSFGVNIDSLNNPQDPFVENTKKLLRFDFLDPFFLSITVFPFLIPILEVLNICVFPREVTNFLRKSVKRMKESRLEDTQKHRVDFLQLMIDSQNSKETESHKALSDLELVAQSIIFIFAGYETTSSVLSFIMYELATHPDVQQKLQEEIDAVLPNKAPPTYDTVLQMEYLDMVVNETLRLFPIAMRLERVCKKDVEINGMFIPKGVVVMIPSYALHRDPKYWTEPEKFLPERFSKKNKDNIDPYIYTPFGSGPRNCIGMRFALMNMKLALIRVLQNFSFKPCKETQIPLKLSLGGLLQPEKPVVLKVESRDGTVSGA
Sequence of CYP2D6 (P10635 whole entry): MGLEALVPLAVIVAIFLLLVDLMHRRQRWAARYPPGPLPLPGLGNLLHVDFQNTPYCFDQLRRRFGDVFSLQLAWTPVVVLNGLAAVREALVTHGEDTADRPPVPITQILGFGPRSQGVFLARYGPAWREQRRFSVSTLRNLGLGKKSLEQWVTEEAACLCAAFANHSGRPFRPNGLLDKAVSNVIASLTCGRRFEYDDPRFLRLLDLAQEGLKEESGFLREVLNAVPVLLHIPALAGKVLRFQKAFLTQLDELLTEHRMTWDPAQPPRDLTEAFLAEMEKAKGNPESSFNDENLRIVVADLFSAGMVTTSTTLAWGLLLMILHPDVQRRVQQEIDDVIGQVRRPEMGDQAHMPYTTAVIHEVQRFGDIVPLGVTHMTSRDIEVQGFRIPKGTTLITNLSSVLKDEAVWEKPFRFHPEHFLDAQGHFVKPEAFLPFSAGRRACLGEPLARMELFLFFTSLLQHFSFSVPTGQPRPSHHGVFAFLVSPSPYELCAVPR

SMILES	CYP-2D6 (Dextromethorphan) mean percentage CYP inhibition (CYP2D6)	CYP-3A4 (Midazolam) mean percentage CYP inhibition (CYP3A4)	CYP-3A4 (Testosterone) mean percentage CYP inhibition (CYP3A4)	T1/2 [1]	% Remaining at T120 [1]	% Remaining At T120 [2]	CLint (L/hr/kg) [2]	CLint (mL/min/kg) [2]	T1/2 [2]	% Remaining At T120 [3]	CLint (L/hr/kg) [3]	CLint (mL/min/kg) [3]	T1/2 [3]	CYP-2B6 (Bupropion) mean percentage CYP inhibition (CYP2B6)	solubility kinetic at 4 h [4]	% Remaining At T120 (beagle dog hepatocytes)	CLint (L/hr/kg) (beagle dog hepatocytes)	CLint (mL/min/kg) (beagle dog hepatocytes)	T1/2 (beagle dog hepatocytes)	further results
CNS(=O)(=O)Nc1cccc(Cc2c(CN(C)C)c3cc(F)c(OC(=O)N(C)C)cc3oc2=O)c1F [Compound 25]	5.7%	48.5%	47.2%	55.43 h	95.5%	80.4%	0.886 L/h/kg	14.8 mL/min/kg	6.33 h	60.0%	1.38 L/h/kg	23.0 mL/min/kg	2.72 h	16.0%	>80 µM	62.7%	2.51 L/h/kg	41.9 mL/min/kg	2.97 h	
CNS(=O)(=O)Nc1nccc(Cc2c(CN(C)C)c3ccc(OC(=O)N(C)C)cc3oc2=O)c1F [Compound 124]	10.8%	63.2%	62.6%	>2 h	100.3%	49.2%	2.87 L/h/kg	47.9 mL/min/kg	1.95 h	32.2%	3.06 L/h/kg	51.0 mL/min/kg	1.22 h	25.5%		34.4%	5.73 L/h/kg	95.6 mL/min/kg	1.3 h	
CCCS(=O)(=O)Nc1cccc(Cc2c(CN3CCNCC3)c3cc(Cl)c(OC(=O)N(C)C)cc3oc2=O)c1F [Compound 167]	10.1%	54.8%	51.2%	>2 h	106.9%	29.0%	5.02 L/h/kg	83.7 mL/min/kg	1.12 h	31.0%	3.16 L/h/kg	52.6 mL/min/kg	1.18 h	19.8%		17.7%	9.31 L/h/kg	155 mL/min/kg	0.8 h	
CNS(=O)(=O)Nc1cccc(Cc2c(CN(C)C)c3ccc(OC(=O)N(C)C)cc3oc2=O)c1F [Compound 9]	4.4%	9.6%	30.9%	19.67 h	93.4%	44.3%	3.30 L/h/kg	54.9 mL/min/kg	1.7 h	34.9%	2.84 L/h/kg	47.3 mL/min/kg	1.32 h	−2.5%	>80 µM	66.2%	2.22 L/h/kg	36.9 mL/min/kg	3.37 h	PAMPA (pH = 7.4; Papp 10^−6 cm/s) (PAMPA (pH 7.4)): 37 10^−6 cm/s; Kinetic Solubility (PBS pH = 7.4; 4 hr) ([4]; PBS pH = 7.4, 4 hr (Table 8)): >80 uM
CCS(=O)(=O)Nc1cccc(Cc2c(CN(C)C)c3ccc(OC(=O)N(C)C)cc3oc2=O)c1F [Compound 120]	−1.9%	11.4%	12.6%	42.68 h	96.8%	31.6%	4.67 L/h/kg	77.8 mL/min/kg	1.2 h	32.0%	3.07 L/h/kg	51.2 mL/min/kg	1.22 h	13.4%	>80 µM	49.5%	3.78 L/h/kg	63.0 mL/min/kg	1.97 h	
CNS(=O)(=O)Nc1cccc(Cc2c(CN3CCNCC3)c3cc(F)c(OC(=O)N(C)C)cc3oc2=O)c1F [Compound 134]	0.5%	44.5%	52.6%	21.15 h	95.2%	78.5%	0.980 L/h/kg	16.3 mL/min/kg	5.73 h	59.8%	1.39 L/h/kg	23.1 mL/min/kg	2.7 h	10.3%		74.7%	1.57 L/h/kg	26.1 mL/min/kg	4.75 h	
